What was measured:
Test in all cases: relative viability (nuclei count vs DMSO), 5 days (fraction); higher = more cells survive
PAC-1 + Tozasertib = compound: C=CCc1cccc(/C=N/NC(=O)CN2CCN(Cc3ccccc3)CC2)c1O [PAC-1] + Cc1cc(Nc2cc(N3CCN(C)CC3)nc(Sc3ccc(NC(=O)C4CC4)cc3)n2)n[nH]1 [Tozasertib] (partner 0.1 µM)
How it was run: (§1)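 Relative viability was taken as the ratio of nuclei in treated wells to nuclei in vehicle wells. Lung cancer cell lines in 1536-well plates received compounds by pin tool one day after seeding, either one drug alone or a fixed anchor-drug dose plus five library-drug doses (not always all listed) in √10 steps. Nuclei were counted on 4× images after 5 days of treatment, and values are medians of duplicate plates.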

Ibrutinib + Foretinib = compound: C=CC(=O)N1CCC[C@@H](n2nc(-c3ccc(Oc4ccccc4)cc3)c3c(N)ncnc32)C1 [Ibrutinib] + COc1cc2c(Oc3ccc(NC(=O)C4(C(=O)Nc5ccc(F)cc5)CC4)cc3F)ccnc2cc1OCCCN1CCOCC1 [Foretinib] (partner 0.25 µM)
How it was run: as §1

Ibrutinib + Linsitinib = compound: C=CC(=O)N1CCC[C@@H](n2nc(-c3ccc(Oc4ccccc4)cc3)c3c(N)ncnc32)C1 [Ibrutinib] + C[C@]1(O)C[C@@H](c2nc(-c3ccc4ccc(-c5ccccc5)nc4c3)c3c(N)nccn32)C1 [Linsitinib] (partner 1 µM)
How it was run: as §1

BMX-IN-1 + Pictilisib = compound: C=CC(=O)Nc1cc(-n2c(=O)ccc3cnc4ccc(-c5ccc(NS(C)(=O)=O)cc5)cc4c32)ccc1C [BMX-IN-1] + CS(=O)(=O)N1CCN(Cc2cc3nc(-c4cccc5[nH]ncc45)nc(N4CCOCC4)c3s2)CC1 [Pictilisib] (partner 1 µM)
How it was run: as §1

Cell Line	relative viability (PAC-1 + Tozasertib; first compound 0.02 µM)	relative viability (PAC-1 + Tozasertib; first compound 0.06325 µM)	relative viability (PAC-1 + Tozasertib; first compound 0.2 µM)	relative viability (PAC-1 + Tozasertib; first compound 2 µM)	relative viability (Ibrutinib + Foretinib; first compound 0.005 µM)	relative viability (Ibrutinib + Foretinib; first compound 0.01581 µM)	relative viability (Ibrutinib + Foretinib; first compound 0.05 µM)	relative viability (Ibrutinib + Foretinib; first compound 0.1581 µM)	relative viability (Ibrutinib + Foretinib; first compound 0.5 µM)	relative viability (Ibrutinib + Linsitinib; first compound 0.005 µM)	relative viability (Ibrutinib + Linsitinib; first compound 0.05 µM)	relative viability (Ibrutinib + Linsitinib; first compound 0.1581 µM)	relative viability (Ibrutinib + Linsitinib; first compound 0.5 µM)	relative viability (BMX-IN-1 + Pictilisib; first compound 0.02 µM)	relative viability (BMX-IN-1 + Pictilisib; first compound 0.2 µM)	relative viability (BMX-IN-1 + Pictilisib; first compound 0.6325 µM)	relative viability (BMX-IN-1 + Pictilisib; first compound 2 µM)	relative viability (Ibrutinib + Linsitinib; first compound 0.01581 µM)
NCI-H522	0.598	0.582	0.62	0.469	–	–	–	–	–	–	–	–	–	–	–	–	–	–
LCLC-97TM1	0.22	0.286	0.217	0.225	0.945	0.881	1	1	0.843	0.179	0.175	0.2	0.169	0.189	0.197	0.274	0.207	–
NCI-H2023	0.404	0.355	0.382	0.347	0.747	0.721	0.562	0.975	0.459	0.601	0.53	0.596	0.456	0.27	0.241	0.265	0.334	0.494
LC-2-ad	0.456	0.48	0.357	0.449	0.958	0.747	0.856	0.886	0.836	0.829	0.89	0.869	0.745	0.645	0.555	0.619	0.482	0.778
NCI-H1975	0.76	0.824	0.748	0.729	0.973	0.891	0.819	0.96	0.544	0.916	0.844	0.985	0.503	0.285	0.291	0.363	0.287	0.834
NCI-H1793	0.316	0.338	0.439	0.238	–	0.566	0.552	0.545	0.416	–	0.652	0.797	0.509	0.306	0.309	0.365	0.279	0.66
Calu-6	–	–	–	–	0.961	0.853	0.918	0.844	0.826	0.991	0.928	1.04	0.888	1.14	1.21	1.09	0.866	–
HCC-366	0.117	0.0944	0.121	0.0773	1.04	0.909	0.958	0.866	0.881	0.634	0.662	0.51	0.614	0.124	0.666	0.137	0.16	0.614
NCI-H2347	0.534	0.572	0.576	0.511	–	0.811	0.8	–	0.725	–	1.04	0.816	1.05	0.748	0.576	0.613	0.748	0.979
NCI-H2405	0.688	0.737	0.74	0.786	1.11	1.07	1.08	1.06	–	0.849	0.929	–	0.869	0.505	0.444	0.484	0.393	0.801
HCC-44	0.989	1.04	0.94	0.877	–	–	–	–	–	0.682	0.673	0.732	0.645	0.732	0.687	0.836	0.622	0.591
NCI-H1563	–	–	–	–	0.985	0.92	0.935	0.998	0.88	1.37	1.33	1.16	1.06	0.601	0.629	0.655	0.684	1.08
NCI-H1666	0.553	0.605	0.615	0.544	0.981	0.919	0.919	0.988	0.74	0.86	0.615	0.955	0.422	0.404	0.365	0.428	0.396	0.628
IA-LM	–	–	–	–	1.11	1.04	1.1	1.24	1.1	0.397	0.453	0.512	0.56	0.337	0.403	0.427	0.386	0.658
NCI-H1299	–	–	–	–	0.557	1.07	1.14	1.09	1.11	0.497	0.961	0.966	1.03	0.838	0.934	0.906	0.563	0.993
NCI-H1648	0.6	0.606	0.464	0.488	–	–	–	–	–	–	–	–	–	–	–	–	–	–
NCI-H1703	–	–	–	–	–	0.322	0.317	0.307	0.338	0.178	0.632	0.467	0.627	0.248	0.265	0.248	0.225	0.676
NCI-H2170	0.693	0.776	0.805	0.712	1.06	0.858	0.951	1.01	0.377	–	–	–	–	0.319	0.312	0.319	0.307	–
NCI-H2342	0.521	0.564	0.525	0.61	0.9	1	0.812	1.12	0.801	–	–	–	–	–	–	–	–	–
NCI-H1623	0.42	0.43	0.427	0.482	0.8	0.701	0.568	0.692	0.289	–	–	–	–	–	–	–	–	–
SW 900	0.581	0.61	0.473	0.465	–	–	0.861	0.683	0.836	–	–	–	–	–	–	–	–	–
ChaGo-K-1	0.214	0.217	0.223	0.218	0.842	0.902	0.937	0.954	0.853	–	–	–	–	0.66	0.64	0.858	0.614	–
NCI-H1792	–	–	–	–	–	–	–	–	–	0.553	0.506	0.608	0.53	0.321	0.299	0.227	0.253	0.44

Reference: the supplement of paper PMC10307832
